In patent publication US20110236886A1, “PATHOGENICITY DETERMINANTS WHICH CAN BE USED AS TARGETS FOR DEVELOPING MEANS FOR PREVENTING AND CONTROLLING BACTERIAL INFECTIONS AND/OR SYSTEMIC DISSEMINATION” (priority 2002, published 2011):

Key:
[1] = system: S. agalactiae NEM316; test: Disk diffusion sensitivity to cationic antimicrobial peptides, wild type strain; assay type: cell-based, Streptococcus agalactiae; details: blood agar plates, 18 hours at 37° C., disc content colistin 50 μg, polymixin B 10 μg
Method: (§1) The sensitivity of wild type S. agalactiae NEM316 and DltD mutant to cationic antimicrobial peptides was measured by using a disk diffusion methods. The 2 strains were grown on blood agar plates and incubated for 18 hours at 37° C. Each strain was tested using colistin (50 μg) and polymixin (10 μg) disks. Sensitivity or resistance of NEM316 strain and the DltD mutant to each compound was determined by the size of the growth inhibition area around disk.

[2] = system: DltD mutant of S. agalactiae NEM316; test: Disk diffusion sensitivity to cationic antimicrobial peptides, DltD mutant; assay type: cell-based, Streptococcus agalactiae; details: for Inhibition area (mm) Mutant DltD: blood agar plates, 18 hours at 37° C., disc content colistin 50 μg, polymixin B 10 μg; for Sensitivity of the DltD mutant to the peptide compared with wild type: result in words
Method: as §1

Substance	Inhibition area (mm) NEM316 [1]	Inhibition area (mm) Mutant DltD [2]	Sensitivity of the DltD mutant to the peptide compared with wild type [2]
colistin	0 mm	14 mm	increased sensitivity
polymyxin B [Polymixin B]	0 mm	14 mm	increased sensitivity
